Columns and labels:
Type in all cases: physicochemical
[1] = Stability Study 1: storage stability of a formulation comprising the disodium salt, HPLC; settings: 25° C., heading 30° C.; for % weight in formulation after 1 month: after 1 month storage; for % weight in formulation after 3 months: after 3 months storage; for % weight in formulation after 6 months: after 6 months storage; for % weight in formulation after 9 months: after 9 months storage; for Initial (% weight of formulation): formulation comprising the disodium salt
Description: The stability of a formulation comprising the disodium salt of […] In each case, the percentage of 4-(((R)-1-carboxy-2-(((2E,6E)-3,7,11-trimethyldodeca-2,6,10-trien-1-yl)thio)ethyl)amino)-4-oxobutanoic acid remaining at each time point was determined by use of HPLC.

[2] = Stability Study 2 conducted at 5° C.: storage stability of a formulation comprising the disodium salt, HPLC; settings: for weight percentage of the component, 1 months: 1 month at 5° C.; for weight percentage of the component, 2 months: 2 months at 5° C.; for weight percentage of the component, 3 months: 3 months at 5° C.; for weight percentage of the component, 6 months: 6 months at 5° C.; for weight percentage of the component, 9 months: 9 months at 5° C.; for weight percentage of the component, 12 months: 12 months at 5° C.; for weight percentage of the component, 18 months: 18 months at 5° C.; for weight percentage of the component, 24 months: 24 months at 5° C.; for weight percentage of the component, Initial: storage at 5° C.
Description: The stability of a formulation comprising the disodium salt of 4-(((R)-1-carboxy-2-(((2E,6E)-3,7,11-trimethyldodeca-2,6,10-trien-1-yl)thio)ethyl)amino)-4-oxobutanoic acid was determined after storage at 5° C. for a period of 1 month, 2 months, 3 months, 6 months, 9 months, 12 months, 18 months, and 24 months. In each case, the percentage of 4-(((R)-1-carboxy-2-(((2E,6E)-3,7,11-trimethyldodeca-2,6,10-trien-1-yl)thio)ethyl)amino)-4-oxobutanoic acid remaining at each time point was determined by use of HPLC. Each of the percentages in the table below are expressed at the weight percentage of the component as compared to the total weight of the composition.

[3] = Screening Study (Example 5): sulfoxide formed in API solution with each agent, HPLC; settings: for (% area sulfoxide for each agent/% area sulfoxide in Blank) / Average % area sulfoxide for 3 runs per agent: 24 hours exposed to air at room temperature, not protected from light; for % area sulfoxide relative to % area Control: Control: no agent, stored at 5° C. and protected from light; for Average % area sulfoxide for 3 runs per agent: pH 7.4 to 7.5 buffer, API disodium salt solution plus agent
Description: A buffer solution was prepared by adding 0.72 g of Na2HPO4, 0.24 g KH2PO4 and 500 mL of deionized water into a container and mixing. The pH of the mixture was adjusted to 7.4 to 7.5 using NaOH and H3PO4.
(§1) A solution of each agent in the table below was prepared by adding 500 mg or each agent into a 25 mL volumetric flask and filling the flask to volume by the addition of the prepared buffer solution.
A 6% solution of API was prepared by adding 3.0 g the disodium salt of 4-(((R)-1-carboxy-2-(((2E,6E)-3,7,11-trimethyldodeca-2,6,10-trien-1-yl)thio)ethyl)amino)-4-oxobutanoic acid to a 50 mL volumetric flask filling the flask to volume by the addition of argon-sparged methanol, followed by mixing.
(§2) A screen was performed for each agent as follows: (1) 2.5 mL of the stock solution of API and 2.5 mL of each agent was added into scintillation vial, the vial was capped and the contents were mixed (repeated three times for each agent); and (2) allowing each resulting mixture to sit for 24 hours exposed to air at room temperature and not protected from light. A blank solution was prepared (3×) by adding buffer solution into the 100 mL volumetric flask in place of the agent and was stored under the same conditions as the other samples, 24 hours exposed to air at room temperature and not protected from light. After 24 hours, the contents of each vial were transferred to a 100 mL volumetric flask and each volumetric flask was filled to volume by the addition of methanol, and an aliquot of each mixture was removed and analyzed by HPLC.
(§3) The area of the sulfoxide of 4-(((R)-1-carboxy-2-(((2E,6E)-3,7,11-trimethyldodeca-2,6,10-trien-1-yl)thio)ethyl)amino)-4-oxobutanoic acid produced in each solution was calculated as follows: % area sulfoxide=Rsulfoxide/(Rparent+Rsulfoxide), wherein Rsuffoxide=the area under the response of the sulfoxide in the HPLC trace, and Rparent=the area under the response of 4-(((R)-1-carboxy-2-(((2E,6E)-3,7,11-trimethyldodeca-2,6,10-trien-1-yl)thio)ethyl)amino)-4-oxobutanoic acid in the HPLC trace. The control sample in Table 8 contained no agent, was stored at 5° C. and protected from light.

[4] = Screening Study (Example 3): sulfoxide formed in API solution with each agent, HPLC; settings: 24 hours exposed to air at room temperature, not protected from light; for Average % area sulfoxide for 3 runs per agent: API disodium salt solution plus agent
Description: A buffer solution was prepared by adding 0.72 g of Na2HPO4, 0.24 g KH2PO4 and 500 mL of deionized water into a container and mixing.
as §1
A 6% solution of API was prepared by adding 3.0 g the disodium salt of 4-(((R)-1-carboxy-2-(((2E,6E)-3,7,11-trimethyldodeca-2,6,10-trien-1-yl)thio)ethyl)amino)-4-oxobutanoic acid to a 50 mL volumetric flask and filling the flask to volume by the addition of methanol, followed by mixing.
as §2, with “a 100 mL volumetric flask” for “scintillation vial, the vial was capped”, “agent.” for “agent and was stored under the same conditions as the other samples, 24 hours exposed to air at room temperature and not protected from light.”, “hours,” for “hours, the contents of each vial were transferred to a 100 mL volumetric flask and”
as §3, with “trace.” for “trace. The control sample in Table 8 contained no agent, was stored at 5° C. and protected from light.”

[5] = API stock in argon-sparged methanol

Row | % weight in formulation after 1 month [1] [%] | % weight in formulation after 3 months [1] [%] | % weight in formulation after 6 months [1] [%] | % weight in formulation after 9 months [1] [%] | Initial (% weight of formulation) [1] [%] | weight percentage of the component, 1 months [2] [weight percentage] | weight percentage of the component, 2 months [2] [weight percentage] | weight percentage of the component, 3 months [2] [weight percentage] | weight percentage of the component, 6 months [2] [weight percentage] | weight percentage of the component, 9 months [2] [weight percentage] | weight percentage of the component, 12 months [2] [weight percentage] | weight percentage of the component, 18 months [2] [weight percentage] | weight percentage of the component, 24 months [2] [weight percentage] | weight percentage of the component, Initial [2] [weight percentage] | (% area sulfoxide for each agent/% area sulfoxide in Blank) [3, 5] | % area sulfoxide relative to % area Control [3] | Average % area sulfoxide for 3 runs per agent [3] [%] | Structure (SMILES) | % area sulfoxide relative to % area Control [4] | (% area sulfoxide for each agent/% area sulfoxide in Blank) [4] | Average % area sulfoxide for 3 runs per agent [4] [%] | also measured
1 | – | – | – | – | – | – | – | – | – | – | – | – | – | – | 2.39 | 1.812 | 2.771 | O=C1O[C@H]([C@@H](O)CO)C(O)=C1O [Ascorbic acid] | – | – | – | –
2 | – | – | – | – | – | – | – | – | – | – | – | – | – | – | 1.02 | 0.227 | 1.186 | Cc1cc(C(C)(C)C)c(O)c(C(C)(C)C)c1 [Butylated hydroxytoluene (BHT), Butylated hydroxytoluene] | 0.115 | 0.97 | 1.092 | –
3 | 0.17 | 0.17 | 0.17 | 0.16 | 0.17 | 0.17 | 0.17 | 0.17 | 0.18 | 0.17 | 0.17 | 0.17 | 0.15 | 0.17 | – | – | – | COC(=O)c1ccc(O)cc1 [Methylparaben] | – | – | – | –
4 | 0.033 | 0.034 | 0.032 | 0.033 | 0.034 | 0.032 | 0.032 | 0.033 | 0.032 | 0.033 | 0.032 | 0.033 | 0.030 | 0.034 | – | – | – | CCCOC(=O)c1ccc(O)cc1 [Propylparaben] | – | – | – | –
5 | – | – | – | – | – | – | – | – | – | – | – | – | – | – | 7.38 | 7.587 | 8.546 | CC(C)(C)c1cc(O)ccc1O [Tert-butylhydroquinone (TBHQ), Tert-butylhydroquinone] | – | – | – | –

More lines, now with the values behind:

Row | Structure (SMILES) | % weight in formulation after 1 month [1] [%] | % weight in formulation after 3 months [1] [%] | % weight in formulation after 6 months [1] [%] | % weight in formulation after 9 months [1] [%] | Initial (% weight of formulation) [1] [%] | weight percentage of the component, 1 months [2] [weight percentage] | weight percentage of the component, 2 months [2] [weight percentage] | weight percentage of the component, 3 months [2] [weight percentage] | weight percentage of the component, 6 months [2] [weight percentage] | weight percentage of the component, 9 months [2] [weight percentage] | weight percentage of the component, 12 months [2] [weight percentage] | weight percentage of the component, 18 months [2] [weight percentage] | weight percentage of the component, 24 months [2] [weight percentage] | weight percentage of the component, Initial [2] [weight percentage] | (% area sulfoxide for each agent/% area sulfoxide in Blank) [3, 5] | % area sulfoxide relative to % area Control [3] | Average % area sulfoxide for 3 runs per agent [3] [%] | % area sulfoxide relative to % area Control [4] | (% area sulfoxide for each agent/% area sulfoxide in Blank) [4] | Average % area sulfoxide for 3 runs per agent [4] [%] | also measured
6 | CC(C)=CCC/C(C)=C/CC/C(C)=C/CSC[C@H](NC(=O)CCC(=O)O)C(=O)O [4-(((R)-1-carboxy-2-(((2E,6E)-3,7,11-trimethyldodeca-2,6,10-trien-1-yl)thio)ethyl)amino)-4-oxobutanoic acid] | 2.97 | 3.13 | 2.92 | 2.87 | 3.09 | 3.01 | 3.00 | 3.10 | 3.04 | 3.03 | 3.06 | 3.10 | 3.05 | 3.09 | – | – | – | – | – | – | –
7 | O=C(CO)[C@@H](O)[C@H](O)[C@H](O)CO [Fructose] | – | – | – | – | – | – | – | – | – | – | – | – | – | – | – | – | – | 0.146 | About 1 | 1.123 | –
8 | O=S([O-])([O-])=S.[Na+].[Na+] [Sodium thiosulfate] | – | – | – | – | – | – | – | – | – | – | – | – | – | – | – | 0.158 | 1.117 | 0.055 | 0.92 | 1.032 | (% area sulfoxide for each agent/% area sulfoxide in Blank) [3]: 0.96
9 | CC(C)=CCC/C(C)=C/CC/C(C)=C/C[S+]([O-])C[C@H](NC(=O)CCC(=O)O)C(=O)O (stereo partly drawn) [Sulfoxide of 4-(((R)-1-carboxy-2-(((2E,6E)-3,7,11-trimethyldodeca-2,6,10-trien-1-yl)thio)ethyl)amino)-4-oxobutanoic acid] | 0.031 | 0.113 | 0.053 | 0.134 | 0.037 | 0.039 | 0.076 | 0.112 | 0.048 | 0.049 | 0.050 | 0.052 | 0.044 | 0.037 | – | – | – | – | – | – | –
10 | CC(=O)Oc1c(C)c(C)c2c(c1C)CCC(C)(CCC[C@H](C)CCC[C@H](C)CCCC(C)C)O2 (some centres unmarked) [Vitamin E acetate] | – | – | – | – | – | – | – | – | – | – | – | – | – | – | 1.01 | 0.208 | 1.167 | – | – | – | –
11 | O=S([O-])CO.[Na+] [sodium hydroxymethylsulfinate] | – | – | – | – | – | – | – | – | – | – | – | – | – | – | – | – | – | 0.571 | 1.37 | 1.548 | –

Reference: patent publication US20200179319A1, “PHARMACEUTICAL FORMULATIONS AND THEIR USE” (Signum Biosciences, Inc., priority 2016, published 2020)
